# Data from US8093210B2, “Treatment of sepsis with 5-ethyl-1-phenyl-2(1H)-pyridone” (Solanan, Inc., priority 2008, dated 2012).
# Where two headings read alike, the source gives them in different places.
# Tests used:
# IL-12 = experiment: Serum IL-12 (ELISA) in LPS/D-galactosamine model of sepsis (Example 5); type: in vivo, mice; settings: 90 minutes after the treatment
# Description: Mice were treated simultaneously with LPS (10 μg/kg) and D-galactosamine (600 mg/kg) (Galanos C, Freudenberg M A, Reutter W. […] They were anesthetized with halothane and blood was collected at different times by cardiac puncture and centrifuged to separate serum. The serum levels of alanine transaminase (ALT) and aspartate transaminase (AST) were measured by a commercial diagnostic company (Idexx Laboratories). The serum levels of tumor necrosis factor-alpha (TNF-α), interleukin-6 (IL-6) and interleukin-12 (IL-12) were determined by commercially available mouse enzyme-linked immunosorbent assay (ELISA) kits (BD BioSciences, San Jose, Calif.).
# The methodology utilized in Example 4 was used to measure and analyze the serum enzyme data for statistical significance. The serum levels of proinflammatory cytokines between the 5-EPP treated and saline control groups were analyzed for statistical significance by one-way ANOVA and a Tukey's multiple comparison test (Prism™ for Windows 4.02, Graphpad Software, Inc. San Diego, Calif.).
# [1] = LD50 estimate after a single intraperitoneal dose (Example 8); type: in vivo; settings: male, Swiss-Webster, mouse, in vivo, ip; mice; single intraperitoneal dose; sigmoidal curve fit, R^2=0.949
# Description: (§1) Male Swiss-Webster mice were obtained from standard commercial sources at 7 weeks of age, housed in the laboratory for at least 1 week prior to use and were provided standard mouse chow and water ad libitum. Animals were subjected to a 12 hour/12 hour light-dark cycle.
# (§2) Six groups of mice were injected via the intraperitoneal route with 5-EPP (250-500 mg/kg) dissolved in sterile isotonic saline, immediately replaced in their cages and then observed carefully for the next 6-8 hours. A LD50 value was estimated from the mortality data by a non-linear curve fitting program (Prism™ for Windows 4.02).
# Male Swiss-Webster mice = experiment: as above; type: in vivo
# Description: as §1, §2
# [2] = Solubility in water and isotonic saline (Example 9); type: physicochemical; settings: for solubility: thermodynamic from solid, room temperature, colorless, clear solution, read-out: solubility (soluble at)
# Description: All solutions were prepared by weighing the chemical, transferring his solid into a polypropylene tube or polystyrene tube and then adding either water or saline to the final desired volume. The compound was dissolved by intermittent mixing with a vortex mixer, gentle heating in a warm water bath (40-45° C.) and sonication (3×15 min.).
# [3] = tested on: LPS/D-galactosamine-induced mortality; experiment: LPS/D-galactosamine-induced mortality in mice, survival curve (Example 7, FIG. 2); type: in vivo; settings: LPS 20 μg/kg + D-galactosamine 600 mg/kg, monitored 4 days
# Description: The effects of treatment with 5-EPP on LPS/D-galactosamine-induced mortality was investigated in mice. At least 10 mice in each group were challenged with either a lethal dose of LPS (20 μg/kg) and D-galactosamine (600 mg/kg) or the same dose of LPS/D-galactosamine+different doses of 5-EPP by intraperitoneal route and the morality in each group was monitored at different times for 4 days in order to evaluate the protective effects of 5-EPP against LPS/D-galactosamine-induced mortality.
# However, the survival of mice treated with 25 mg/kg of 5-EPP was 45% and 100% at 50 mg/kg, 100 mg/kg and 200 mg/kg with p≦0.0001 as determined by Chi square test.
# THP-1 cells = experiment: MTS cytotoxicity analysis on THP-1 cells; type: cell-based; settings: LPS 1 ng/mL and 5-EPP 0-500 μg/mL for 12 hours
# Description: Cytotoxicity analysis was performed on THP-1 cells treated with various concentrations of 5-EPP using the MTS (3-(4,5-dimethylthiazol-2-yl)-5-(3-carboxymethoxyphenyl)-2-(4-sulfophenyl)-2H-tetrazolium, inner salt) assay (Promega, Madison, Wis.).
# LPS-induced septic shock = experiment: Lethal shock caused by LPS alone, survival of mice (Example 3); type: in vivo; settings: LPS alone (30 mg/kg), 100 mg/kg i.p., monitored for 4 days
# Description: The survival of mice subjected to treatment of the agent and LPS alone pursuant to the methodology of Galanos C, Freudenberg M A, Reutter W. Proc Natl Acad Sci USA. 1979 November; 76 (11)5939-43) was observed. This procedure is believed to evoke a pathophysiological response which is more like that observed during septic shock than that caused by the LPS and galactosamine.
# All agents were injected simultaneously via the intraperitoneal route and the response compared to a placebo agent (saline).
# The animals were monitored for 4 days after treatment and the resulting data analyzed by the same Fisher exact test and criteria as before.
# TNF-α in THP-1 cells = experiment: Secreted and cell-associated TNF-α in PMA-transformed THP-1 cells exposed to LPS (ELISA, Example 6); type: cell-based, human; settings: 3 hr, mean ± SEM, four replicates; for Secreted TNF-α: THP-1, 1 ng/mL LPS; for Cell-associated TNF-α: THP-1 lysate, 1 ng/mL LPS
# Description: The effects of 5-EPP on secreted and cell associated TNF-α was examined in vitro using phorbol myristate acetate-transformed (PMA; Sigma, St. Louis, Mo.) human monocytic cells, THP-1 (ATCC, Manassas, Va.) according to the technique described by Grattendick et al. (International Immunopharmacology 2008, 8; 679-87). Briefly, cells were incubated for 3 hr on 96-well plates with culture media, 1 ng/mL LPS, or 1 ng/mL LPS 0-200 μg/mL 5-EPP before culture media were collected and analyzed for the presence of secreted TNF-α via a commercially available enzyme-linked immunosorbent assay (ELISA) kit (BD Biosciences, San Diego, Calif.). Separately, identically treated cells were lysed and their cell-associated TNF-α levels were determined via ELISA. All treatment groups were simultaneously compared using one-way ANOVA and Tukey's multiple comparison tests.
# The values are expressed in pg/mL as mean±standard error of the mean for four replicates at all concentrations in each case.
smiles,measurement,setting,value
"CCc1ccc(=O)n(-c2ccccc2)c1 [5-EPP, 5-ethyl-1-phenyl-2-(1H)-pyridone]",serum level of IL-12,IL-12; 50 mg/kg,"2,809 ± 325 pg/mL"
same,serum level of IL-12,IL-12; 100 mg/kg,"1,371 ± 124 pg/mL"
same,serum level of IL-12,IL-12; 200 mg/kg,870 ± 99 pg/mL
same,LD50,[1],380 mg/kg
same,"time to ataxia, loss of the righting reflex and labored breathing",Male Swiss-Webster mice; highest doses (450-500 mg/kg) ip,≤ 5 min
same,"absorption and distribution, suggested by rapid onset of symptoms",Male Swiss-Webster mice; intraperitoneal route,rapidly absorbed and distributed across the blood-brain barrier
same,time over which symptoms gradually lessened until animals appeared unaffected,Male Swiss-Webster mice; lower doses ip,1 to 2 h
same,LD100,"Male Swiss-Webster mice; single intraperitoneal dose, raw mortality data",450 to 500 mg/kg
same,Results (solubility),"[2]; DI Water, final 5-EPP 20.0 mg/mL",soluble
same,Results (solubility),"[2]; Isotonic saline, final 5-EPP 20.0 mg/mL",soluble
same,Results (solubility),"[2]; Isotonic saline, final 5-EPP 20.1 mg/mL",soluble
same,solubility,"[2]; saline or isotonic, saline",20 mg/mL
same,precipitation of dissolved compound,[2]; standing at room temperature overnight or following refrigeration,no precipitation was observed
same,solubility,[2]; water,20 mg/mL
same,concentrations that do not completely dissolve,[2]; water or saline,≥ 30000 µg/mL
same,survival,[3]; 25 mg/kg ip,45%
same,survival,[3]; 50 mg/kg ip,100%
same,survival,[3]; 100 mg/kg ip,100%
same,survival,[3]; 200 mg/kg ip,100%
same,concentration at which cytotoxicity appears (no cytotoxicity below),THP-1 cells,at least 300 μg/mL
same,mortality,LPS-induced septic shock,30% mortality
same,Secreted TNF-α,TNF-α in THP-1 cells; 10 μg/mL 5-EPP,5382.8 ± 91.8 pg/mL
same,Secreted TNF-α,TNF-α in THP-1 cells; 33 μg/mL 5-EPP,3261.5 ± 94.1 pg/mL
same,Secreted TNF-α,TNF-α in THP-1 cells; 100 μg/mL 5-EPP,2073.7 ± 60.7 pg/mL
same,Secreted TNF-α,TNF-α in THP-1 cells; 200 μg/mL 5-EPP,1469.7 ± 58.9 pg/mL
same,Cell-associated TNF-α,TNF-α in THP-1 cells; 10 μg/mL 5-EPP,35.4 ± 3.1 pg/mL
same,Cell-associated TNF-α,TNF-α in THP-1 cells; 33 μg/mL 5-EPP,25.9 ± 1.6 pg/mL
same,Cell-associated TNF-α,TNF-α in THP-1 cells; 100 μg/mL 5-EPP,19.0 ± 0.9 pg/mL
same,Cell-associated TNF-α,TNF-α in THP-1 cells; 200 μg/mL 5-EPP,10.1 ± 1.3 pg/mL
